Data as given in patent US9944607B2, “Thiohydantoin derivatives and uses thereof” (Whitehead Institute for Biomedical Research, priority 2012, dated 2018).
In brackets after ≈: the same amount, converted by molar mass. Where two headings read alike, the source gives them in different places. Each block holds one compound with its values, some of them ahead of it.

What was measured:
Candida albicans CaCi-2 = experiment: Primary assay: C. albicans CaCi-2 growth inhibition (Alamar Blue); type: cell-based; conditions: n = 3, 48 hours, tested up to 26 μM; for IC50: read-out: Growth Inhibition Activity, IC50 (μM), C. albicans (n = 3) CaCi-2
Candida albicans CaCi-17 = experiment: Primary assay: C. albicans CaCi-17 growth inhibition (Alamar Blue); type: cell-based; conditions: n = 3, 48 hours, tested up to 26 μM
[1] = system: NIH-3T3 mammalian fibroblasts; experiment: Counterscreen mammalian cell toxicity assay (Alamar Blue); type: cell-based, murine; conditions: n = 1, 48 hours, tested up to 26 μM
Method: Quiescent murine fibroblasts were subjected to incubation with compounds of interest for 48 hours. Subsequent cell viability was determined via measuring Alamar Blue fluorescence.
Procedures • After overnight culture, pin compounds into wells at 100 nL/well using the CyBio CyBi-Well pinning instrument. • Return the plates to the tissue culture incubator and incubate the culture for an additional 48 hours at 37° C. under 5% CO2. • At the completion of this incubation, add Alamar Blue solution diluted 1:40 in PBS to each well (10 μL/well) to achieve a final dilution of 1:200. • Incubate the plates for an additional 2-3 hours at 37° C. under 5% CO2. • Read the Relative Fluorescence Intensity (RFU) of wells on a standard plate reader as a measure of relative cell growth. […] 4.4.

[2] = Solubility in PBS pH 7.4 with 1% DMSO; conditions: for solubility at 24 h: phosphate buffered saline with 1% DMSO, pH 7.4, aqueous buffer, kinetic from dmso stock
Method: Solubility was determined in phosphate buffered saline (PBS) pH 7.4 with 1% DMSO. Each compound was prepared in duplicate at 100 μM in both 100% DMSO and PBS with 1% DMSO. Compounds were allowed to equilibrate at room temperature with a 250 rpm orbital shake for 24 hours. After equilibration, samples were analyzed by UPLC-MS (Waters, Milford, Mass.) with compounds detected by SIR detection on a single quadrupole mass spectrometer. The DMSO samples were used to create a two-point calibration curve to which the response in PBS was fit.

[3] = Table 4, PBS pH 7.4 with 1% DMSO, 24 hours, room temperature

Growth Inhibition Activity, IC50 (μM), C. albicans (n = 3) CaCi-2 (Candida albicans CaCi-2; Table 7): inactive
Growth Inhibition Activity, IC50 (μM), C. albicans (n = 3) CaCi-17 (Candida albicans CaCi-17; Table 7): inactive
solubility at 24 h [2]: 72 µM (≈ 18.7 µg/mL)
Compound: Cc1ccc(N2C(=S)NC(=O)C23CCCC3)cc1 [compound 56604876]
IC50 ([1]; Mus musculus, NIH3T3, read-out: Growth Inhibition Activity, IC50 (μM), 3T3 Fibroblasts (n = 1), Table 7): 32.6 µM

Growth Inhibition Activity, IC50 (μM), C. albicans (n = 3) CaCi-2 (Candida albicans CaCi-2; Table 7): inactive
Growth Inhibition Activity, IC50 (μM), C. albicans (n = 3) CaCi-17 (Candida albicans CaCi-17; Table 7): inactive
solubility at 24 h [2]: 55 µM (≈ 12.9 µg/mL)
Compound: Cc1ccc(N2C(=S)NC(=O)C2(C)C)cc1 [compound 56604879]
Growth Inhibition Activity, IC50 (μM), 3T3 Fibroblasts (n = 1) ([1]; Table 7): Inactive

Growth Inhibition Activity, IC50 (μM), C. albicans (n = 3) CaCi-2 (Candida albicans CaCi-2; Table 7): inactive
Growth Inhibition Activity, IC50 (μM), C. albicans (n = 3) CaCi-17 (Candida albicans CaCi-17; Table 7): inactive
solubility at 24 h [2]: 14 µM (≈ 3.62 µg/mL)
Compound: Cc1ccc(N2C(=O)NC(=O)C23CCCCC3)cc1 [compound 56604883]
Growth Inhibition Activity, IC50 (μM), 3T3 Fibroblasts (n = 1) ([1]; Table 7): Inactive

Growth Inhibition Activity, IC50 (μM), C. albicans (n = 3) CaCi-2 (Candida albicans CaCi-2; Table 7): inactive
Growth Inhibition Activity, IC50 (μM), C. albicans (n = 3) CaCi-17 (Candida albicans CaCi-17; Table 7): inactive
solubility at 24 h [2]: 21 µM (≈ 4.63 µg/mL)
Compound: Cc1ccc(N2C(=O)C(=O)NC2=S)cc1 [compound 56604884]
Growth Inhibition Activity, IC50 (μM), 3T3 Fibroblasts (n = 1) ([1]; Table 7): Inactive

Growth Inhibition Activity, IC50 (μM), C. albicans (n = 3) CaCi-2 (Candida albicans CaCi-2; Table 7): inactive
Growth Inhibition Activity, IC50 (μM), C. albicans (n = 3) CaCi-17 (Candida albicans CaCi-17; Table 7): inactive
solubility at 24 h [2]: > 100 µM
Compound: Cc1ccc(N2C(=S)NC(=O)C23CCOCC3)cc1 [compound 56604885]
Growth Inhibition Activity, IC50 (μM), 3T3 Fibroblasts (n = 1) ([1]; Table 7): Inactive

Growth Inhibition Activity, IC50 (μM), C. albicans (n = 3) CaCi-2 (Candida albicans CaCi-2; Table 3): inactive
Growth Inhibition Activity, IC50 (μM), C. albicans (n = 3) CaCi-17 (Candida albicans CaCi-17; Table 3): inactive
PBS Solubility ([2]; pH 7.4): 7.8 µM
Compound: Cc1ccc(N2C(=S)NC(=O)C23CCCCC3)cc1 [compound 56604892]
Growth Inhibition Activity, IC50 (μM), 3T3 Fibroblasts (n = 1) ([1]; Table 3): Inactive

Growth Inhibition Activity, IC50 (μM), C. albicans (n = 3) CaCi-2 (Candida albicans CaCi-2; Table 5): Inactive
Growth Inhibition Activity, IC50 (μM), C. albicans (n = 3) CaCi-17 (Candida albicans CaCi-17; Table 5): inactive
PBS Solubility ([2]; pH 7.4): 9.9 µM
Compound: CCOC(=O)N1C(=O)C2(CCC2)N(c2ccc(C)cc2)C1=S [compound 56604894]
Growth Inhibition Activity, IC50 (μM), 3T3 Fibroblasts (n = 1) ([1]; Table 5): Inactive

Second part, the compound before the results:

Compound: CCCCN1C(=O)N(c2ccc(C)cc2)C2(CCCCC2)C1=S [compound 56604857]
Growth Inhibition Activity, IC50 (μM), C. albicans (n = 3) CaCi-2 (Candida albicans CaCi-2; Table 6): inactive
Growth Inhibition Activity, IC50 (μM), C. albicans (n = 3) CaCi-17 (Candida albicans CaCi-17; Table 6): inactive
IC50 ([1]; Mus musculus, NIH3T3, read-out: Growth Inhibition Activity, IC50 (μM), 3T3 Fibroblasts (n = 1), Table 6): 20.9 µM
solubility at 24 h [2]: < 1 µM

Compound: CCCc1ccc(N2C(=S)N(C(=O)OCC)C(=O)C23CCCCC3)cc1 [compound 56604858]
IC50 (Candida albicans CaCi-2; Table 4): 6.9 µM
Growth Inhibition Activity, IC50 (μM), C. albicans (n = 3) CaCi-17 (Candida albicans CaCi-17; Table 4): inactive
Growth Inhibition Activity, IC50 (μM), 3T3 Fibroblasts (n = 1) ([1]; Table 4): Inactive
PBS Solubility ([2]; pH 7.4): <1.0 µM

Compound: Cc1ccc(N2C(=S)N(C(=O)OC(C)C)C(=O)C23CCCCC3)cc1 [compound 56604859]
IC50 (Candida albicans CaCi-2; Table 3): 5.9 µM
Growth Inhibition Activity, IC50 (μM), C. albicans (n = 3) CaCi-17 (Candida albicans CaCi-17; Table 3): inactive
Growth Inhibition Activity, IC50 (μM), 3T3 Fibroblasts (n = 1) ([1]; Table 3): Inactive
PBS Solubility ([2]; pH 7.4): <1.0 µM

Compound: O=C1NC(=S)N(c2ccc(F)cc2)C12CCCCC2 [compound 56604862]
Growth Inhibition Activity, IC50 (μM), C. albicans (n = 3) CaCi-2 (Candida albicans CaCi-2; Table 7): inactive
Growth Inhibition Activity, IC50 (μM), C. albicans (n = 3) CaCi-17 (Candida albicans CaCi-17; Table 7): inactive
Growth Inhibition Activity, IC50 (μM), 3T3 Fibroblasts (n = 1) ([1]; Table 7): Inactive
solubility at 24 h [2]: 43 µM (≈ 12 µg/mL)

Compound: CCOC(=O)N1C(=S)N(c2ccc(C)cc2)C2(CCCCC2)/C1=N/Cc1ccccc1 [compound 56604867]
Growth Inhibition Activity, IC50 (μM), C. albicans (n = 3) CaCi-2 (Candida albicans CaCi-2; Table 6): inactive
Growth Inhibition Activity, IC50 (μM), C. albicans (n = 3) CaCi-17 (Candida albicans CaCi-17; Table 6): inactive
Growth Inhibition Activity, IC50 (μM), 3T3 Fibroblasts (n = 1) ([1]; Table 6): Inactive
solubility at 24 h [2]: 26 µM (≈ 11.3 µg/mL)

Compound: CCCC(=O)N1C(=O)C2(CCCCC2)N(c2ccc(C)cc2)C1=S [compound 56604869]
Growth Inhibition Activity, IC50 (μM), C. albicans (n = 3) CaCi-2 (Candida albicans CaCi-2; Table 3): inactive
Growth Inhibition Activity, IC50 (μM), C. albicans (n = 3) CaCi-17 (Candida albicans CaCi-17; Table 3): inactive
IC50 ([1]; read-out: Growth Inhibition Activity, IC50 (μM), 3T3 Fibroblasts (n = 1), Table 3): 18.8 µM
PBS Solubility ([2]; pH 7.4): 2.2 µM

Compound: Cc1ccc(N2C(=S)N(C(=O)Oc3ccccc3)C(=O)C23CCCCC3)cc1 [compound 56604875]
Growth Inhibition Activity, IC50 (μM), C. albicans (n = 3) CaCi-2 (Candida albicans CaCi-2; Table 3): inactive
Growth Inhibition Activity, IC50 (μM), C. albicans (n = 3) CaCi-17 (Candida albicans CaCi-17; Table 3): inactive
Growth Inhibition Activity, IC50 (μM), 3T3 Fibroblasts (n = 1) ([1]; Table 3): Inactive
PBS Solubility ([2]; Table 3, PBS pH 7.4 with 1% DMSO, 24 hours, room temperature): <1.0 µM

Compound: CCCCN1C(=O)N(c2ccc(C)cc2)C2(CCCCC2)C1=O [compound 56604877]
Growth Inhibition Activity, IC50 (μM), C. albicans (n = 3) CaCi-2 (Candida albicans CaCi-2; Table 6): inactive
Growth Inhibition Activity, IC50 (μM), C. albicans (n = 3) CaCi-17 (Candida albicans CaCi-17; Table 6): inactive
Growth Inhibition Activity, IC50 (μM), 3T3 Fibroblasts (n = 1) ([1]; Table 6): Inactive
solubility at 24 h [2]: 64 µM (≈ 20.1 µg/mL)

Compound: CCOC(=O)N1C(=O)C2(CCCCC2)N(Cc2ccccc2)C1=S [compound 56604878]
IC50 (Candida albicans CaCi-2; Table 4): 3.8 µM
IC50 (Candida albicans CaCi-17; Table 4, read-out: Growth Inhibition Activity, IC50 (μM), C. albicans (n = 3) CaCi-17): 22.8 µM
Growth Inhibition Activity, IC50 (μM), 3T3 Fibroblasts (n = 1) ([1]; Table 4): Inactive
PBS Solubility [2, 3]: 7.2 µM

Compound: CCOC(=O)N1C(=O)C2(CCCCC2)N(c2ccc(-c3ccccc3)cc2)C1=S [compound 56604882]
Growth Inhibition Activity, IC50 (μM), C. albicans (n = 3) CaCi-2 (Candida albicans CaCi-2; Table 4): inactive
Growth Inhibition Activity, IC50 (μM), C. albicans (n = 3) CaCi-17 (Candida albicans CaCi-17; Table 4): inactive
IC50 ([1]; read-out: Growth Inhibition Activity, IC50 (μM), 3T3 Fibroblasts (n = 1), Table 4): 9.8 µM
PBS Solubility [2, 3]: <1.0 µM

Compound: Cc1ccc(N2C(=S)N(S(C)(=O)=O)C(=O)C23CCCCC3)cc1 [compound 56604886]
Growth Inhibition Activity, IC50 (μM), C. albicans (n = 3) CaCi-2 (Candida albicans CaCi-2; Table 3): inactive
Growth Inhibition Activity, IC50 (μM), C. albicans (n = 3) CaCi-17 (Candida albicans CaCi-17; Table 3): inactive
Growth Inhibition Activity, IC50 (μM), 3T3 Fibroblasts (n = 1) ([1]; Table 3): Inactive
PBS Solubility ([2]; pH 7.4): 29 µM

Compound: CCOC(=O)N1C(=O)C2(CCCCC2)N(C(C)C)C1=S [compound 56604896]
Growth Inhibition Activity, IC50 (μM), C. albicans (n = 3) CaCi-2 (Candida albicans CaCi-2; Table 4): inactive
Growth Inhibition Activity, IC50 (μM), C. albicans (n = 3) CaCi-17 (Candida albicans CaCi-17; Table 4): inactive
Growth Inhibition Activity, IC50 (μM), 3T3 Fibroblasts (n = 1) ([1]; Table 4): Inactive
PBS Solubility [2, 3]: 12 µM
